13 compounds from patent US8871753B2, “Macrocyclic compounds and their use as kinase inhibitors” (Incyte Corporation, priority 2008, dated 2014) can be followed below.

What all share (type): biochemical
For test [1], the target named is T1, human JAK1 (a.a. 837-1142) (Homo sapiens, UniProt P23458).
T1 construct: human JAK1 (a.a. 837-1142); His tag (N); made in house; host or cells: insect cells (baculovirus)
Nature of the test: In vitro JAK kinase assay (HTRF, phosphorylation of a biotinylated peptide), JAK1. The settings on record: read-out: JAK1 IC50. In a few lines:
(§1)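 Kinase activity was measured as phosphorylation of a biotinylated peptide, with ATP at 90 μM for JAK1, 30 μM for JAK2 and 3 μM for JAK3. Reactions ran 1 hr at room temperature, were stopped with EDTA plus SA-APC and Eu-Py20, and were read by HTRF after 40 minutes of antibody binding.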
For orientation: Time-resolved FRET reads energy transfer from a long-lived donor to a nearby acceptor.

In test [2] the target is T2, human JAK3 (a.a. 781-1124) (Homo sapiens, UniProt P52333).
T2 construct: JAK3 (a.a. 781-1124); His tag (N); made in house; host or cells: insect cells (baculovirus)
T2 sequence (P52333 781-1124): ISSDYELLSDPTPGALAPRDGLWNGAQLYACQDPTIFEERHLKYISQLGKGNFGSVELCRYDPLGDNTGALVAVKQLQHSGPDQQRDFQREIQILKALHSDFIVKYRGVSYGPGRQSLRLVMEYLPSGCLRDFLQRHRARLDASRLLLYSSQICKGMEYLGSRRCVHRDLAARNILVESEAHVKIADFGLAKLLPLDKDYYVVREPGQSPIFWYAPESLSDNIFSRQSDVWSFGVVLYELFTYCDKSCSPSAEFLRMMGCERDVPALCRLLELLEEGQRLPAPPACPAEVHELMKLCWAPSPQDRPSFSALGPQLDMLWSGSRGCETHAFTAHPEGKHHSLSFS
Nature of the test: In vitro JAK kinase assay (HTRF, phosphorylation of a biotinylated peptide), JAK3. A digest of the protocol:
as §1

Test [3] addresses T3, Recombinant Human Anaplastic Lymphoma Kinase (Homo sapiens, UniProt Q9UM73).
T3 construct: purchased Invitrogen, Carlsbad, Calif
Nature of the test: ALK HTRF kinase assay. In a few lines:
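Compounds were incubated with recombinant human ALK and a biotin-tagged peptide substrate. Product was captured with streptavidin-APC and probed with a europium anti-phosphotyrosine antibody, and plates were read for time-resolved fluorescence. Dose-response data were fitted to derive IC50.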

Test [4] concerns the target T4, human JAK2 (a.a. 828-1132) (Homo sapiens, UniProt O60674).
T4 construct: JAK2 (a.a. 828-1132); His tag (N); made in house; host or cells: insect cells (baculovirus)
Nature of the test: In vitro JAK kinase assay (HTRF, phosphorylation of a biotinylated peptide), JAK2. In a few lines: as §1

In the next test the target is TYK2 (Homo sapiens, UniProt P29597). Nature of the test: TYK2 kinase inhibition (Table A1).
Chain of TYK2 (P29597 whole entry): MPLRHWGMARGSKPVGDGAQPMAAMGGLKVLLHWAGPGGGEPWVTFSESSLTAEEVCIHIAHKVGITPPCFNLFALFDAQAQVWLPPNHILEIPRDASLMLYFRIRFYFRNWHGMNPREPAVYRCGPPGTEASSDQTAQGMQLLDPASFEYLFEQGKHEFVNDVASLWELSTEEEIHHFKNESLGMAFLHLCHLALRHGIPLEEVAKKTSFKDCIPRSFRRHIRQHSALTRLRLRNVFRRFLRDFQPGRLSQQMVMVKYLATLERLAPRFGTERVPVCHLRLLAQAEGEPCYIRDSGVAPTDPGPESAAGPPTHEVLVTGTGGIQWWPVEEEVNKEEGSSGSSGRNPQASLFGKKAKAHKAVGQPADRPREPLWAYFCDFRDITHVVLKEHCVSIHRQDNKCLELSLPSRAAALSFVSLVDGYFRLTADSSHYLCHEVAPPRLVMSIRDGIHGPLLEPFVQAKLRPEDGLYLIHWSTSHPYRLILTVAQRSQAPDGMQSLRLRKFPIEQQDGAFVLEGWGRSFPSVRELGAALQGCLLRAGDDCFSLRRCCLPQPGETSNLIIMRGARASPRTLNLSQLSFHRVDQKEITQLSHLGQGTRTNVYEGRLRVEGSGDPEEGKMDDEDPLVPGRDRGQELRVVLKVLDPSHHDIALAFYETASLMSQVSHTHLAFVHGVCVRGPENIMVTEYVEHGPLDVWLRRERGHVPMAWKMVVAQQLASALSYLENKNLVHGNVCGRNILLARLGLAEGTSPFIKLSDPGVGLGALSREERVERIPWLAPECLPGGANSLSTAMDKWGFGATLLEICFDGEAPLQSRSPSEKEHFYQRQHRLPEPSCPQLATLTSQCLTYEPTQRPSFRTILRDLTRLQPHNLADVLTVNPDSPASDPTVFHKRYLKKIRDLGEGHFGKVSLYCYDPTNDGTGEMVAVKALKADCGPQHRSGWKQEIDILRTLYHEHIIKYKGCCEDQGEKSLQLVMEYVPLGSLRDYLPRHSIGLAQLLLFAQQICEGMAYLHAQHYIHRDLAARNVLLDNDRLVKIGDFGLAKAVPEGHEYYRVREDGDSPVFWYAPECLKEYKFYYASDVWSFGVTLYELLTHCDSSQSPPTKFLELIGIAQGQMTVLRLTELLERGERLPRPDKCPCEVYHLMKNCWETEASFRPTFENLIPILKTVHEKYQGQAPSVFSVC
Where [5] appears, read: compound at a concentration of 500 nM or 1 mM (not specified), cells shown as percentage.
The mark [6] stands for this setting: percentage inhibition of the example compound at a concentration of 500 nM or 1 mM (not specified which).
[7] abbreviates: Table B1, cells without percent sign.

Structures can show the parent of a compound that is named as a salt. Where two headings read alike, the source gives them in different places.

T3 sequence (Q9UM73 19-1620): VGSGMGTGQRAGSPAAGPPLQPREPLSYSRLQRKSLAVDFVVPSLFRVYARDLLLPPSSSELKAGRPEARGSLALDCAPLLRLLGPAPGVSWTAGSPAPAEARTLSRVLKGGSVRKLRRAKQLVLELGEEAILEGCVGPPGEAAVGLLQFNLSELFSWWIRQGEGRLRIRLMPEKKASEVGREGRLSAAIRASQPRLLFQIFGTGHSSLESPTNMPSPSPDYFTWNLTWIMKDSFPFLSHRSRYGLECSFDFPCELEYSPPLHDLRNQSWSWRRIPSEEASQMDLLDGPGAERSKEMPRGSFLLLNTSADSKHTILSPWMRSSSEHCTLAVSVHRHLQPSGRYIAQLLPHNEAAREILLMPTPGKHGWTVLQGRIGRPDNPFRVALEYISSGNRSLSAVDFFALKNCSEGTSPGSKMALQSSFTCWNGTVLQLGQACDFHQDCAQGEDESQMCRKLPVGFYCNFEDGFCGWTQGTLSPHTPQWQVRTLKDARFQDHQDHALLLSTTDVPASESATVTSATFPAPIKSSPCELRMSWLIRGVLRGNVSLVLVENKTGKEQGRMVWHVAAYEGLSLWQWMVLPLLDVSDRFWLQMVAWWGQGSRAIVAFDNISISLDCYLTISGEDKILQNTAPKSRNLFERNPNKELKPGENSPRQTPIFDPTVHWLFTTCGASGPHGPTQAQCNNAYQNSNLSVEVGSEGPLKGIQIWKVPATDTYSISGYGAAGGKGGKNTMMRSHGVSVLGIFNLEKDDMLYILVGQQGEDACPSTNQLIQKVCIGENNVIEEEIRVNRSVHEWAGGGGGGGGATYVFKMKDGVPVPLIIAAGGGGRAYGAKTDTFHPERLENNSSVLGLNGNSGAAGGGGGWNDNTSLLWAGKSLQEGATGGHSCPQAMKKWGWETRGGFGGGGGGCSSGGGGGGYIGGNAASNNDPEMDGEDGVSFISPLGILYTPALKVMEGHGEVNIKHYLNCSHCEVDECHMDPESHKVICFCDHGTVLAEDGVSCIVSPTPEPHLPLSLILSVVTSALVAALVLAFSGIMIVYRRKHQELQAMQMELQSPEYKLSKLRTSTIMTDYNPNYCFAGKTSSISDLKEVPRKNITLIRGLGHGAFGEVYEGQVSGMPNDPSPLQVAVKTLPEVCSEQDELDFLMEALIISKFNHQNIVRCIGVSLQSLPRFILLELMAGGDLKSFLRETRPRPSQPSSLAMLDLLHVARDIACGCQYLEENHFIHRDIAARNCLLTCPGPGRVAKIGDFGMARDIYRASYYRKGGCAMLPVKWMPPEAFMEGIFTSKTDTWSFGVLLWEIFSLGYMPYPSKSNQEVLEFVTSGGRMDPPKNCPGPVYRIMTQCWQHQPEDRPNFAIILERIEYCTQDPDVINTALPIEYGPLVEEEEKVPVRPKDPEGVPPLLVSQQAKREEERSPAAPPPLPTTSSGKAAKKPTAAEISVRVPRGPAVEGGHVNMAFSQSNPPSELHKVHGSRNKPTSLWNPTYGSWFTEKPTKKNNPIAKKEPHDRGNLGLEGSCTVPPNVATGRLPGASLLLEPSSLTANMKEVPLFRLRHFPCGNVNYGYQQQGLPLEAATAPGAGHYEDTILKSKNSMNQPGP
T4 sequence (O60674 828-1132): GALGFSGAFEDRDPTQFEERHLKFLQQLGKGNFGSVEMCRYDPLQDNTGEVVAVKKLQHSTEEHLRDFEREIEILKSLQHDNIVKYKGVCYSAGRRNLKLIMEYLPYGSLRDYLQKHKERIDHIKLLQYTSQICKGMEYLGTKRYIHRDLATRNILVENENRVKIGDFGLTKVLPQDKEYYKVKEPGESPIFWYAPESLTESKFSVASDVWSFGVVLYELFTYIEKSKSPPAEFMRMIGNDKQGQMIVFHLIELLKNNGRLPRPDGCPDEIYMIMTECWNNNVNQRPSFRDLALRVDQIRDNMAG
T1 sequence (P23458 849-1154): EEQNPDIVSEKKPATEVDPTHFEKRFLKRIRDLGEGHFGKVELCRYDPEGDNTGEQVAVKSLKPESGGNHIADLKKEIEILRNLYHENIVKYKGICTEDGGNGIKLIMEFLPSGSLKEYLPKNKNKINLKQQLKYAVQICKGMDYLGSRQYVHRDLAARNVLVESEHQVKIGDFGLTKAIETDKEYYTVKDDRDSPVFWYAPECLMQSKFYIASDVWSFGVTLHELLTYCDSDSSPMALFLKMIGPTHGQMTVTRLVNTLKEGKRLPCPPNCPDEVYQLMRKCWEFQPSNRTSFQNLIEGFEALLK

Broadly, the IC50 is the concentration that inhibits the measured activity by half. In the case of `O=C(c1coc(Nc2ccc3cc2CCc2cccc(c2)Nc2ncc(Cl)c(n2)N3)n1)N1CCN2CCCC2C1` (centres unmarked) [Example B296, 6-Chloro-N-[4-(hexahydropyrrolo[1,2-a]pyrazin-2(1H)-ylcarbonyl)-2,3-oxazol-2-yl]-2,4,8,22-tetraazatetracyclo[14.3.1.1(3,7).1(9,13)]docosa-1(20),3(22),4,6,9(21),10,12,16,18-nonaen-12-amine bis(trifluoroacetate)], the IC50 was 8.3 nM in test [1] (Table B1), > 200 nM in test [2] (Table B1), 26 nM in test [4] (Table B1) and 48 nM against TYK2 (Table B1). Besides, the “ALK % of inhibition at a concentration of 500 nM or 1 mM” value (“ALK % of inhibition” for short) in test [3] (setting [5]) stood at 33%.

For the compound `CN(Cc1ccc2cc1CCc1cncc(c1)Nc1ncc(Cl)c(n1)N2)CC1CCNCC1` [Example B339, 1-[6-Chloro-2,4,8,18,22-pentaazatetracyclo[14.3.1.1(3,7).1(9,13)]docosa-1(20),3(22),4,6,9(21),10,12,16,18-nonaen-12-yl]-N-methyl-N-(piperidin-4-ylmethyl)methanamine Tetrahydrochloride], the IC50 was 172 nM in test [1] (Table B1), > 400 nM in test [2] (Table B1), > 400 nM in test [4] (Table B1) and > 400 nM on TYK2 (Table B1). Further, the “ALK % of inhibition” value in test [3] (setting [6]) came out at 41%.

As for `Clc1cnc2nc1Nc1cccc(c1)OCCc1cc(cc(-c3ccccc3)c1)N2` [Example D28, 6-Chloro-19-phenyl-14-oxa-2,4,8,23-tetraazatetracyclo[15.3.1.1(3,7).1(9,13)]tricosa-1(21),3(23),4,6,9(22),10,12,17,19-nonaene trifluoroacetate], the IC50 stood at 6.2 nM in test [1] (Table D1); 53 nM in test [2] (Table D1); 525 nM in test [3] (Table D1, 90 μM ATP); 5.2 nM in test [4] (Table D1); 25 nM at TYK2 (Table D1).

On to `O=C(Nc1ccsc1)Nc1ccc2cc1CCc1cccc(c1)Nc1ncc(Cl)c(n1)N2` [Example B89, N-[6-Chloro-2,4,8,22-tetraazatetracyclo[14.3.1.1(3,7).1(9,13)]docosa-1(20),3(22),4,6,9(21),10,12,16,18-nonaen-12-yl]-N′-3-thienylurea trifluoroacetate], for which the IC50 in test [1] (Table B1) is 2.4 nM; in test [2] (Table B1), 40 nM; in test [3] (setting [7]) it was > 1000 nM; in test [4] (Table B1), 2.9 nM; on TYK2 (Table B1) it was 16 nM.

As to `CC(C)(C)c1ccccc1NC(=O)Nc1ccc2cc1CCc1cccc(c1)Nc1ncc(Cl)c(n1)N2` [Example B110, N-(2-tert-Butylphenyl)-N′-[6-chloro-2,4,8,22-tetraazatetracyclo[14.3.1.1(3,7).1(9,13)]docosa-1(20),3(22),4,6,9(21),10,12,16,18-nonaen-12-yl]urea trifluoroacetate], the IC50 stood at 4.3 nM in test [1] (Table B1), 92 nM in test [2] (Table B1), 5.2 nM in test [4] (Table B1) and 15 nM on TYK2 (Table B1). Besides, the “ALK % of inhibition” value in test [3] (setting [5]) worked out at 7.1%.

Regarding `N#Cc1ccc(NC(=O)Nc2ccc3cc2CCc2cccc(c2)Nc2ncc(Cl)c(n2)N3)cc1` [Example B96, N-[6-Chloro-2,4,8,22-tetraazatetracyclo[14.3.1.1(3,7).1(9,13)]docosa-1(20), 3(22),4,6,9(21),10,12,16,18-nonaen-12-yl]-N′-(4-cyanophenyl)urea trifluoroacetate], the half-maximal inhibitory concentration (IC50) in test [1] (Table B1) is 1 nM; in test [2] (Table B1) it was 45 nM; in test [3] (setting [7]), > 1000 nM; in test [4] (Table B1), 6 nM; at TYK2 (Table B1) it was 12 nM.

Regarding `Clc1cnc2nc1Nc1cccc(c1)OCc1cccc(c1)N2` [Example D7, 6-Chloro-14-oxa-2,4,8,22-tetraazatetracyclo[14.3.1.1(3,7).1(9,13)]docosa-1(20),3(22),4,6,9(21),10,12,16,18-nonaene trifluoroacetate], the IC50 was 100 nM in test [1] (Table D1); > 100 nM in test [2] (Table D1); > 10000 nM in test [3] (Table D1, 90 μM ATP); 61 nM in test [4] (Table D1); > 100 nM on TYK2 (Table D1).

Turning to `Cn1cnc(S(=O)(=O)Nc2ccc3cc2CCc2cccc(c2)Nc2ncc(Cl)c(n2)N3)c1` [Example B144, N-[6-Chloro-2,4,8,22-tetraazatetracyclo[14.3.1.1(3,7).1(9,13)]docosa-1(20), 3(22),4,6,9(21),10,12,16,18-nonaen-12-yl]-1-methyl-1H-imidazole-4-sulfonamide bis(trifluoroacetate)], the IC50 came out at 0.34 nM in test [1] (Table B1); 4.2 nM in test [2] (Table B1); 600 nM in test [3] (setting [7]); 0.2 nM in test [4] (Table B1); 0.5 nM against TYK2 (Table B1).

As for `COC(=O)c1cc2cc(c1)OCCSc1cccc(c1)Nc1nc(ncc1Cl)N2` [Example D43, Methyl 6-chloro-17-oxa-14-thia-2,4,8,24-tetraazatetracyclo[16.3.1.1(3,7).1(9,13)]tetracosa-1(22),3(24),4,6,9(23),10,12,18,20-nonaene-20-carboxylate trifluoroacetate], the IC50 amounted to 2.9 nM in test [1] (Table D1); 66 nM in test [2] (Table D1); 390 nM in test [3] (Table D1, 90 μM ATP); 5.3 nM in test [4] (Table D1); 37 nM against TYK2 (Table D1).

Take `COc1cccc(N2CCN(C(=O)Nc3ccc4cc3CCc3cncc(c3)Nc3ncc(Cl)c(n3)N4)CC2)c1` [Example B304, N-[6-Chloro-2,4,8,18,22-pentaazatetracyclo[14.3.1.1(3,7).1(9,13)]docosa-1(20),3(22),4,6,9(21),10,12,16,18-nonaen-12-yl]-4-(3-methoxyphenyl)piperazine-1-carboxamide tris(trifluoroacetate)]: the IC50 in test [1] (Table B1) was 58 nM; in test [2] (Table B1), > 400 nM; in test [4] (Table B1) it was 300 nM; against TYK2 (Table B1) it was 90 nM. Moreover, the “ALK % of inhibition” value in test [3] (setting [6]) amounted to 67%.

Regarding `CS(=O)(=O)N1CC[C@H](NC(=O)Nc2ccc3cc2CCc2cccc(c2)Nc2ncc(Cl)c(n2)N3)C1` [Example B172, N-[6-Chloro-2,4,8,22-tetraazatetracyclo[14.3.1.1(3,7).1(9,13)]docosa-1(20),3(22),4,6,9(21),10,12,16,18-nonaen-12-yl]-N′-[(3S)-1-(methylsulfonyl)pyrrolidin-3-yl]urea trifluoroacetate], the half-inhibitory concentration (IC50) is 0.82 nM in test [1] (Table B1), 17 nM in test [2] (Table B1), 1.1 nM in test [4] (Table B1) and 2.6 nM on TYK2 (Table B1). For the same compound, the “ALK % of inhibition” value in test [3] (setting [5]) was 24%.

As for `O=C(Nc1ccc2cc1CCc1cccc(c1)Nc1ncc(Cl)c(n1)N2)C1CCN(C(=O)c2ccccc2)CC1` [Example A30, 1-Benzoyl-N-[6-chloro-2,4,8,22-tetraazatetracyclo[14.3.1.1(3,7).1(9,13)]docosa-1(20),3(22),4,6,9(21),10,12,16,18-nonaen-12-yl]piperidine-4-carboxamide trifluoroacetate], the concentration for half-maximal inhibition (IC50) in test [1] (method AA1 (90 μM ATP) or AA2 (1000 μM ATP), not stated per value) was found to be 28 nM; in test [2] (method AA1 (3 μM ATP) or AA2 (1000 μM ATP), not stated per value), 110 nM; in test [4] (method AA1 (30 μM ATP) or AA2 (1000 μM ATP), not stated per value) it was 45 nM; against TYK2 it was 84 nM. Further, the “ALK % of inhibition” value in test [3] (compound at 500 nM or 1 mM, 90 μM ATP) is on record as 34%.

As for `COc1cccc(NC(=O)Nc2ccc3cc2CCc2cccc(c2)Nc2ncc(Cl)c(n2)N3)c1` [Example B100, N-[6-Chloro-2,4,8,22-tetraazatetracyclo[14.3.1.1(3,7).1(9,13)]docosa-1(20), 3(22),4,6,9(21),10,12,16,18-nonaen-12-yl]-N′-(3-methoxyphenyl)urea trifluoroacetate], the IC50 in test [1] (Table B1) turned out to be 0.92 nM; in test [2] (Table B1) it was 40 nM; in test [4] (Table B1), 4.7 nM; against TYK2 (Table B1), 8.7 nM. Besides, the “ALK % of inhibition” value in test [3] (setting [5]) turned out to be 44%.
